Like-named read-outs stand apart in the source and are kept apart here.
How the values were obtained:
Phytophthora infestans = format: in vivo; details: sprayed on tomato one day before inoculation
Rhizoctonia solani AG-1 = test: Protective effect test on rice sheath blight (RSB); format: in vivo
[1] = test system: Pyricularia oryzae Cavara KJ301 strain; format: in vivo; details: sprayed on rice one day before inoculation
[2] = test system: Pyricularia oryzae Cavara KJ301 strain; format: in vivo; details: 100 ppm, soil irrigation (10 mL) 24 hours before inoculation
[3] = test system: Pyricularia oryzae Cavara KJ301 strain; format: in vivo; details: sprayed one day after inoculation
Puccinia recondita [4] = test: Protective effect test on wheat leaf rust (WLR); format: in vivo
[5] = test system: Erysiphe graminis f. sp. hordei; test: Protective effect test on barley powdery mildew (BPM); format: in vivo
Puccinia recondita [6] = details: in vivo
[7] = test system: Erysiphe graminis f. sp. hordei; details: in vivo
Botrytis cinerea = test: Protective effect test on cucumber gray mould (CGM); format: in vivo
Pythium ultimum = test: Protective effect test on cucumber damping off (CDO); format: in vivo; details: soil irrigation (10 mL), disease index after 7 days
Procedure: The potato mixture was inoculated with a plant pat hogen causing cucumber damping off, Pythium ultimum, incubated at 25° C. for 15 days in a growth chamb e r and used as inoculum. Soil (150 mL) prepared by mixing vermiculite and field soil (1:1) was sterilized and mixed with the potato mixture (1 g) to use it as inoculum. After filling the inoculated soil in the pot (diameter 9 cm), five cucumber seeds (house Baekdadagio® cucumber) were sown in the above pot and irrigated with the agricultural fungicidal compositions (10 mL) prepared at the appropriate concentrations. Seven days after the treating with the agricultural fungicidal compositions, a degree of the disease induction was examined based upon criteria for determining the disease index, and control efficacy was determined according to the above examination. The criteria was listed in the following. Criteria 4: seeds don't germinate due to disease outbreak. 3: a young seedling dies in the middle of emergence. 2: ground surface is narrowed due to disease outbreak. 1: growth is poor due to disease outbreak of partial roots. 0: healthy plant […] For only cucumber damping off, it was examined according to the above-mentioned separate criteria.

Sphaerotheca fuliginea = test: Protective effect test on cucumber powdery mildew (CPM); format: in vivo; details: sprayed on cucumber one day before inoculation
Procedure: A plant pathogen, Sphaerotheca fuliginea, was prepared by collecting the diseased leaves of cucumber grown in a vinylhouse, and its spores were suspended in sterilized water. The concentration of the pathogenic spores was adjusted to 10^5 spores/mL and used as inoculum. After a cucumber seed (house ‘Baekdadagi®’ cucumber) was sown in a small pot (diameter 6.5 cm), it was grown in a greenhouse for two weeks and young seedlings with the first true completely open leaf were used for test. After the young seedlings of the cucumber in the small pots were sprayed with agricultural fungicidal compositions prepared at the appropriate concentrations, they were left for 1 day in a greenhouse to dry the fungicidal compositions. The young seedlings of cucumber were inoculated with the prepared pathogenic spores of cucumber powdery mildew by spraying and incubated for 10 days in a green house to induce the disease. A ratio of the diseased areas to total areas of the first true completely open leaves was determined according to the criteria for determining a degree of disease induction. […] For only cucumber damping off, it was examined according to the above-mentioned separate criteria.

Venturia inaequalis = test: Protective effect test on apple scab (APS); format: in vivo; details: apple seedlings treated one day before inoculation
Bipolaris maydis = test: Protective effect test on southern corn leaf blight (CLB); format: in vivo; details: corn treated one day before inoculation
Procedure: A plant pathogen, Bipolaris maydis, was inoculated on the Difco Lima Bean Agar (10 g/L) medium containing 10 g/L dextrose, and incubated at 24° C. with and without fluorescent light for 12 hours each time for 7 days in a growth chamber. After forming spores, the conidiospore was harvested in Tween-20 solution (250 ppm), adjusted at the concentration of 5×10^5 spores/ml and used as inoculum. The southern corn (golden crossbantam 70) for test was grown to be at 4 or 5-leaf stage in a greenhouse. One day after the treating with the agricultural fungicidal compositions, the inoculum was sprayed an young seedlings of the corn, and incubated at 27° C. and 100% relative humidity for 24 hours in a dew chamber to infiltrate the pathogen. The young seedling were incubated at 27° C. and 90% relative humidity for 3 days in a growth chamber to induce the disease. A ratio of diseased areas to total areas of the corn leaves was examined according to the criteria for determining a degree of disease induction.
In the above experiment 2, control value of the compound on the tested pathogens was calculated according to the following mathematical formula 1, and the results were shown in Table 2. For only cucumber damping off, it was examined according to the above-mentioned separate criteria.
Control value(%)=(1—the ratio of diseased area in the treated plant/the ratio of diseased area in the untreated plant)×100

[8] = test system: Colletotrichum lagenarium; test: Protective effect test on cucumber anthracnose (CUA); format: in vivo; details: cucumber treated one day before inoculation
Puccinia recondita [9] = test: Systemic effect test on wheat leaf rust; format: in vivo
[10] = test system: Erysiphe graminis f. sp. hordei; test: Systemic effect test on barley powdery mildew; format: in vivo; details: soil irrigation (10 mL) 24 hours before inoculation

COc1ccc(C(=CC(=O)N2CCOCC2)c2ccc(Cl)cc2)cc1OC [D, Dimethomotph, reference compound]
Control value (%) TLB (Phytophthora infestans; 10 ppm): 80%

OCC1=C[C@H](N[C@H]2C[C@H](CO)[C@@H](O[C@@H]3O[C@H](CO)[C@@H](O)[C@H](O)[C@H]3O)[C@H](O)[C@H]2O)[C@H](O)[C@@H](O)[C@@H]1O [B, Validamycin, reference compound]
Control value (%) RSB (Rhizoctonia solani AG-1; in vivo): 50%

Cc1cccc2sc3nncn3c12 [A, Tricyclazole]
Control value (%) RCB ([1]; 50 ppm): 90% | Control value (%) RCB S.E. (systemic effect) [2]: 87% | Control value (%) RCB C.E. (curative effect) ([3]; 100 ppm): 0%

C[Si](Cn1cncn1)(c1ccc(F)cc1)c1ccc(F)cc1 [E, Flusilazole, reference compound]
Control value (%) WLR (Puccinia recondita [4]; in vivo): 85% | Control value (%) BPM ([5]; in vivo): 85% | Control value (%) WLB C.E. (curative effect) (Puccinia recondita [6]): 97% | Control value (%) BPM C.E. (curative effect) [7]: 81%

CNC(=O)/C(=N/OC)c1c(C)cccc1COc1ccccc1C [The compound of formula 1, N-methyl E-2-((2-methylphenyl)oxymethyl)-6-methylphenylglyoxylamide O-methyl oxime]
Control value (%) RCB ([1]; 2 ppm): 100% | Control value (%) RCB ([1]; 10 ppm): 100% | Control value (%) RSB (Rhizoctonia solani AG-1; 2 ppm, sprayed on rice one day before inoculation): 21% | Control value (%) RSB (Rhizoctonia solani AG-1; 10 ppm, sprayed on rice one day before inoculation): 53% | Control value (%) CGM (Botrytis cinerea; 2 ppm, sprayed on cucumber one day before inoculation): 30% | Control value (%) CGM (Botrytis cinerea; 10 ppm, sprayed on cucumber one day before inoculation): 40% | Control value (%) TLB (Phytophthora infestans; 2 ppm): 79% | Control value (%) TLB (Phytophthora infestans; 10 ppm): 89% | Control value (%) WLR (Puccinia recondita [4]; 2 ppm, sprayed on wheat one day before inoculation): 99% | Control value (%) WLR (Puccinia recondita [4]; 10 ppm, sprayed on wheat one day before inoculation): 100% | Control value (%) BPM ([5]; 2 ppm, sprayed on barley one day before inoculation): 98% | Control value (%) BPM ([5]; 10 ppm, sprayed on barley one day before inoculation): 100% | Control value (%) CDO (Pythium ultimum; 1 ppm): 30% | Control value (%) CDO (Pythium ultimum; 10 ppm): 100% | Control value (%) CDO (Pythium ultimum; 100 ppm): 100% | Control value (%) CPM (Sphaerotheca fuliginea; 1 ppm): 80% | Control value (%) CPM (Sphaerotheca fuliginea; 10 ppm): 100% | Control value (%) CPM (Sphaerotheca fuliginea; 100 ppm): 100% | Control value (%) APS (Venturia inaequalis; 1 ppm): 60% | Control value (%) APS (Venturia inaequalis; 10 ppm): 92% | Control value (%) APS (Venturia inaequalis; 100 ppm): 100% | Control value (%) CLB (Bipolaris maydis; 10 ppm): 80% | Control value (%) CLB (Bipolaris maydis; 100 ppm): 90% | Control value (%) CUA ([8]; 1 ppm): 80% | Control value (%) CUA ([8]; 10 ppm): 100% | Control value (%) CUA ([8]; 100 ppm): 100% | Control value (%) RCB S.E. (systemic effect) [2]: 56% | Control value (%) RCB C.E. (curative effect) ([3]; 10 ppm): 84% | Control value (%) WLB S.E. (systemic effect) (Puccinia recondita [9]; 2 ppm, soil irrigation (10 mL) 24 hours before inoculation): 43% | Control value (%) WLB S.E. (systemic effect) (Puccinia recondita [9]; 10 ppm, soil irrigation (10 mL) 24 hours before inoculation): 100% | Control value (%) WLB S.E. (systemic effect) (Puccinia recondita [9]; 100 ppm, soil irrigation (10 mL) 24 hours before inoculation): 100% | Control value (%) WLB C.E. (curative effect) (Puccinia recondita [6]): 100% | Control value (%) BPM S.E. (systemic effect) ([10]; 2 ppm): 67% | Control value (%) BPM S.E. (systemic effect) ([10]; 10 ppm): 80% | Control value (%) BPM S.E. (systemic effect) ([10]; 100 ppm): 100% | Control value (%) BPM C.E. (curative effect) [7]: 100%

CO/N=C(/C(=O)OC)c1ccccc1COc1ccccc1C [F, Kresoxim methyl, reference compound]
Control value (%) RCB ([1]; 10 ppm): 98% | Control value (%) RSB (Rhizoctonia solani AG-1; in vivo): 5% | Control value (%) CGM (Botrytis cinerea; in vivo): 10% | Control value (%) TLB (Phytophthora infestans; 10 ppm): 57% | Control value (%) WLR (Puccinia recondita [4]; in vivo): 93% | Control value (%) BPM ([5]; in vivo): 94% | Control value (%) RCB S.E. (systemic effect) [2]: 0% | Control value (%) RCB C.E. (curative effect) ([3]; 10 ppm): 39% | Control value (%) WLB S.E. (systemic effect) (Puccinia recondita [9]; in vivo): 0% | Control value (%) WLB C.E. (curative effect) (Puccinia recondita [6]): 0% | Control value (%) BPM C.E. (curative effect) [7]: 50%

Mancozeb [L, reference compound]
Control value (%) APS (Venturia inaequalis; 100 ppm): 82% | Control value (%) CLB (Bipolaris maydis; 100 ppm): 80% | Control value (%) CUA ([8]; 100 ppm): 85%

CC12CC1(C)C(=O)N(c1cc(Cl)cc(Cl)c1)C2=O (stereo not shown) [C, Procymidone, reference compound]
Control value (%) CGM (Botrytis cinerea; in vivo): 40%

CCCCNC(=O)n1c(NC(=O)OC)nc2ccccc21 [K, Benomyl, reference compound]
Control value (%) CDO (Pythium ultimum; 10 ppm): 20% | Control value (%) CPM (Sphaerotheca fuliginea; 10 ppm): 85% | Control value (%) APS (Venturia inaequalis; 10 ppm): 85% | Control value (%) CUA ([8]; 10 ppm): 65%

Source: patent US6469209B1, “Acrylate-type fungicide” (Dongbu Hannong Chemical Co., Ltd., priority 1999, dated 2002)
